According to PMC11853379, “Glioblastoma Cell Migration, Invasion and Vasculogenic Mimicry Downmodulated by Novel uPAcyclin Derivatives” (Cells, 2025):
Read-outs that look alike come from different tables or passages of the source. Positions of bridges follow the written chain, without caps; N, C: chain ends. Residues, ends and D or L forms follow the SMILES beside them.

How the values were obtained:
Format in all cases: cell-based, human
[1] = tested on: U87-MG cells; conditions: 24 h; for reduction of vessel formation (VM, branching points): U87-MG on Geltrex
Protocol: (§1) The tube formation assay was performed as previously described by Franco et al., using 3 × 10^4 U87-MG and 1.5 × 10^4 U251 cells/sample in the absence or presence of specific effectors included at time 0. The evaluation of vascular-like structures, as the branching points number, was performed using the Inverted Microscope DMI Leica 6000 ([…], Milan, Italy) and assessed in 4/5 random fields using the ImageJ 1.52a Software.
(§2) Here, U87-MG cells were plated onto Geltrex^TM, and the formation of round vascular-type structures was assessed after 24 h (Figure 6A). […] If cells are pretreated with nanomolar concentrations of the indicated cyclic peptides for 40 min at 37 °C prior to the VM assay, the number of intersections decreases. For this assay, the peptides [Ala^2, Ala^5]uPAcyclin, [Ala^1]uPAcyclin [Ala^4]uPAcyclin and [Ala^8]uPAcyclin, in addition to the parent uPAcyclin, were selected based on previous considerations. In the histogram shown in Figure 6B, the number of intersections per field is reported for untreated or peptide-exposed samples. As a reference, the uPAcyclin is indeed able to reduce vessel formation by 40% at 1 nM and by 70% at 100 nM. […] [Ala^2,Ala^5]uPAcyclin and [Ala^8]uPAcyclin are able to reduce VM by 50% at 1 nM and by 70% at 100 nM, confirming that they are both efficient inhibitors of GBM functions supporting malignancy. The formation of VM was also monitored in U251-MG cells, which were seeded under the same conditions employed for U87-MG cells. Representative images, reported in Figure 7A, show the elongated structures obtained after 24 h in Geltrex^TM matrix and their reduction in the cells pre-exposed to uPAcyclin, [Ala^2,Ala^5]uPAcyclin and [Ala^8]uPAcyclin. As shown in the histogram reported in Figure 7B, the uPAcyclin is indeed able to reduce vessel formation by 50% at 1 nM and by 80% at 100 nM. […] It is of note that, unlike [Ala^2,Ala^5]uPAcyclin or [Ala^8]uPAcyclin, [Ala^1]uPAcyclin is ineffective, even if employed at 100 nM.
Figure 6 Inhibition of vasculogenic mimicry by U87-MG glioblastoma cells. (A) Representative images of U87-MG cells cultured in DMEM/10% FBS (no matrix) or seeded onto Geltrex^TM in multiwell-96 (3 × 10^4 cells/well). When specified, cells were pre-treated with diluents (untreated) or with the indicated peptides at the indicated concentrations for 40 min at 37 °C prior to the VM assay. All images are taken after 24 h with the DMI Leica 6000 Inverted Microscope and 50× total magnification; scale bar: 100 μm. (B) The quantitation of branching points, defined as the intersection of at least three tubes (red arrows), was performed at 24 h either in control cells and cells exposed to the peptides and reported in the histogram (** p-value < 0.005; *** p-value < 0.001).

[2] = tested on: U251-MG cells; experiment: Vasculogenic mimicry (tube formation) assay, U251-MG on Geltrex; conditions: 24 h
Protocol: as §1, §2
Figure 7 Inhibition of vasculogenic mimicry by U251-MG glioblastoma cells. (A) Representative images of U251-MG cells cultured in DMEM/10% FBS (no matrix) or seeded onto Geltrex^TM in multiwell-96 (1.5 × 10^4 cells/well). When specified, cells were pretreated with diluents (untreated) or with the indicated peptides at the indicated concentrations for 40 min at 37 °C prior to the VM assay. All images are taken after 24 h with the DMI Leica 6000 Inverted Microscope with 50× total magnification; scale bar: 100 μm. (B) The quantitation and expression of branching points (red arrows), is accomplished as reported in the legend of Figure 6 (*** p-value < 0.001).

[3] = tested on: U251-MG cells; experiment: Cell viability / proliferation, Trypan blue exclusion, U251-MG; conditions: DMEM/10% FBS, 100 nM peptide, 24, 48 and 72 h
Protocol: (§3) Cell viability was tested in DMEM/10% FBS in the presence of 100 nM uPAcyclin or Ala peptides via a Trypan blue exclusion assay, as previously reported, using 4 × 10^4 U87-MG and U251-MG glioblastoma cells/sample followed for 24, 48 and 72 h.
(§4) To rule out the possibility that the effects of uPAcyclin and Ala peptides could be due to the inhibition of cell proliferation, cell growth in the presence of these peptides was monitored for 24, 48 and 72 h (Supporting Information, Figure S2). U87-MG and U251-MG cells were exposed to diluents or to serum in the presence of 100 nM uPAcyclin, [Ala^1]uPAcyclin, [Ala^4]uPAcyclin, [Ala^8]uPAcyclin and [Ala^2,Ala^5]uPAcyclin (for the peptide choice, see above), and cell viability was tested at the indicated times using Trypan blue (Figure S2A,B). Both cell lines proliferate in culture in the presence of serum (DMEM/10% FBS), but not in a serum-free medium (DMEM). The growth rates of the U87-MG and U251-MG glioblastoma cell lines were similar, regardless of the exposure to 100 nM of uPAcyclin, [Ala^1]uPAcyclin, [Ala^4]uPAcyclin and [Ala^8]uPAcyclin.
(§5) Figure S5. Cell Viability Assay.
(§6) Unaffected proliferation of U87-MG and U251-MG glioblastoma cells exposed to uPacyclin and selected Ala-peptides. 2x104 U87-MG (A) or U251-MG (B) were seeded in 12 well plates for 24 h in DMEM-10% FBS and serum-starved for 24 h. Then, cells were counted (0 h) and grown in DMEM (no serum) or DMEM-10% FBS, in the presence of 100 nM peptides for 24, 48 and 72 h. Histograms represent the average of two separate experiments undertaken in duplicate.
(§7) (1 picture or pasted object on this page, not shown here)

[4] = tested on: U87-MG cells; experiment: Cell viability / proliferation, Trypan blue exclusion, U87-MG; conditions: DMEM/10% FBS, 100 nM peptide, 24, 48 and 72 h
Protocol: as §3, §4, §5, §6, §7

## CC(=O)N[C@@H](CCCCN)C(=O)N[C@@H](C)C(=O)N[C@H]1CCC(=O)NCCCC[C@@H](C(N)=O)NC(=O)[C@H](CC(C)C)NC(=O)[C@H](CCC(=O)O)NC(=O)[C@H](CCC(=O)O)NC(=O)[C@@H]2CCCN2C(=O)[C@H](C)NC(=O)[C@H](CO)NC1=O [[Ala^2,Ala^5]uPAcyclin] (Ac-KAESAPEELK-NH2; lactam 3-10)
[1]
  IC50: < 1 nM
[1]; 1 nM peptide
  reduction of vessel formation (VM, branching points): 50%
[1]; 100 nM peptide
  reduction of vessel formation (VM, branching points): 70%
[2]
  inhibition of VM compared to uPAcyclin (in words): slightly more effective inhibitors
[3]
  growth rate / proliferation rate: slight but not significant decrease
[4]
  growth rate / proliferation rate: slight but not significant decrease

## CC(=O)N[C@@H](CCCCN)C(=O)N1CCC[C@H]1C(=O)N[C@H]1CCC(=O)NCCCC[C@@H](C(N)=O)NC(=O)[C@H](CC(C)C)NC(=O)[C@H](C)NC(=O)[C@H](CCC(=O)O)NC(=O)[C@@H]2CCCN2C(=O)[C@@H]2CCCN2C(=O)[C@H](CO)NC1=O [[Ala^8]uPAcyclin] (Ac-KPESPPEALK-NH2; lactam 3-10)
[1]
  IC50: < 1 nM
[1]; 1 nM peptide
  reduction of vessel formation (VM, branching points): 50%
[1]; 100 nM peptide
  reduction of vessel formation (VM, branching points): 70%
[2]
  inhibition of VM compared to uPAcyclin (in words): slightly more effective inhibitors
[3]
  growth rate / proliferation rate: similar
[4]
  growth rate / proliferation rate: similar

## CC(=O)N[C@@H](CCCCN)C(=O)N1CCC[C@H]1C(=O)N[C@H]1CCC(=O)NCCCC[C@@H](C(N)=O)NC(=O)[C@H](CC(C)C)NC(=O)[C@H](CCC(=O)O)NC(=O)[C@H](CCC(=O)O)NC(=O)[C@@H]2CCCN2C(=O)[C@@H]2CCCN2C(=O)[C@H](CO)NC1=O [uPAcyclin] (Ac-KPESPPEELK-NH2; lactam 3-10)
[1]; 1 nM peptide
  reduction of vessel formation (VM, branching points): 40%
[1]; 100 nM peptide
  reduction of vessel formation (VM, branching points): 70%
[2]; 1 nM peptide
  reduction of vessel formation (VM, branching points): 50%
[2]; 100 nM peptide
  reduction of vessel formation (VM, branching points): 80%
[3]
  growth rate / proliferation rate: similar
[4]
  growth rate / proliferation rate: similar
